In the supplement of paper PMC11451515:

System: SEM cells
Assay: cell viability relative to DMSO control; higher = less cytotoxic
Settings: 48 h
Method in brief: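 Cells were incubated for 48 h at 37°C before CellTiter-Glo One luminescence was read. The cells were NOMO1 or SEM (500 cells/well) or P12-Ichikawa (1000 cells/well) leukemia cells, adapted for at least four passages in each medium and seeded in 1536-well plates (5 μl). Dosing used library compounds in DMSO applied by pin over 11 threefold points, 47 μM to 0.79 nM. Viability is the per-plate percentage of DMSO wells, with cell-free wells as background.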

[1] = HPLM + 10% dialyzed FBS, 0.000781 µM
[2] = HPLM + 10% dialyzed FBS, 0.00234 µM
[3] = HPLM + 10% dialyzed FBS, 0.00702 µM
[4] = HPLM + 10% dialyzed FBS, 0.0211 µM
[5] = HPLM + 10% dialyzed FBS, 0.0632 µM
[6] = HPLM + 10% dialyzed FBS, 0.19 µM
[7] = HPLM + 10% dialyzed FBS, 0.569 µM
[8] = HPLM + 10% dialyzed FBS, 1.71 µM
[9] = HPLM + 10% dialyzed FBS, 5.12 µM
[10] = HPLM + 10% dialyzed FBS, 15.4 µM
[11] = HPLM + 10% dialyzed FBS, 46.1 µM
[12] = RPMI 5 mM glucose + 10% FBS, 0.000781 µM
[13] = RPMI 5 mM glucose + 10% FBS, 0.00234 µM
[14] = RPMI 5 mM glucose + 10% FBS, 0.00702 µM
[15] = RPMI 5 mM glucose + 10% FBS, 0.0211 µM
[16] = RPMI 5 mM glucose + 10% FBS, 0.0632 µM
[17] = RPMI 5 mM glucose + 10% FBS, 0.19 µM
[18] = RPMI 5 mM glucose + 10% FBS, 0.569 µM
[19] = RPMI 5 mM glucose + 10% FBS, 1.71 µM
[20] = RPMI 5 mM glucose + 10% FBS, 5.12 µM
[21] = RPMI 5 mM glucose + 10% FBS, 15.4 µM
[22] = RPMI 5 mM glucose + 10% FBS, 46.1 µM
[23] = RPMI 5 mM glucose + 10% dialyzed FBS, 0.000781 µM
[24] = RPMI 5 mM glucose + 10% dialyzed FBS, 0.00234 µM
[25] = RPMI 5 mM glucose + 10% dialyzed FBS, 0.00702 µM
[26] = RPMI 5 mM glucose + 10% dialyzed FBS, 0.0211 µM
[27] = RPMI 5 mM glucose + 10% dialyzed FBS, 0.0632 µM
[28] = RPMI 5 mM glucose + 10% dialyzed FBS, 0.19 µM
[29] = RPMI 5 mM glucose + 10% dialyzed FBS, 0.569 µM
[30] = RPMI 5 mM glucose + 10% dialyzed FBS, 1.71 µM
[31] = RPMI 5 mM glucose + 10% dialyzed FBS, 5.12 µM
[32] = RPMI 5 mM glucose + 10% dialyzed FBS, 15.4 µM
[33] = RPMI 5 mM glucose + 10% dialyzed FBS, 46.1 µM

Row | Compound | cell viability [1] | cell viability [2] | cell viability [3] | cell viability [4] | cell viability [5] | cell viability [6] | cell viability [7] | cell viability [8] | cell viability [9] | cell viability [10] | cell viability [11] | cell viability [12] | cell viability [13] | cell viability [14] | cell viability [15] | cell viability [16] | cell viability [17] | cell viability [18] | cell viability [19] | cell viability [20] | cell viability [21] | cell viability [22] | cell viability [23] | cell viability [24] | cell viability [25] | cell viability [26] | cell viability [27] | cell viability [28] | cell viability [29] | cell viability [30] | cell viability [31] | cell viability [32] | cell viability [33]
1 | O=C(OC)[C@]12CC[C@@]3(C)[C@]4(C)CC[C@H]5[C@@](C)(C)C(=O)C(=C[C@]5(C)C4=CC(=O)[C@@H]3[C@@H]2C[C@](C)(C)CC1)C#N | 92.6% | 83.3% | 100% | 101% | 104% | 99.7% | 98.1% | 107% | 81% | 3.9% | 4.06% | 101% | 91.8% | 112% | 94.6% | 110% | 97.4% | 101% | 99.7% | 109% | 3.61% | 4.26% | 82% | 87.2% | 90.8% | 92.6% | 109% | 102% | 103% | 77.4% | 73.6% | 3.1% | 3.38%
2 | C[C@](O)(COc1ccc(C#N)cc1)C(=O)Nc1ccc(C#N)c(C(F)(F)F)c1 | 70.4% | 77% | 90.7% | 84.9% | 91.3% | 95.5% | 87% | 84.4% | 90.5% | 21.9% | 89.6% | 84.9% | 70.4% | 99.6% | 104% | 90.5% | 93% | 102% | 87.3% | 103% | 14.7% | 39.5% | 83% | 81.6% | 91.9% | 91.5% | 95.6% | 107% | 97.6% | 93.9% | 91% | 20.1% | 49.7%
3 | CC[C@H](CC[C@@H](C)[C@H]1CC[C@H]2[C@@H]3C\C=C/4C[C@@H](O)CC[C@]4(C)[C@H]3CC[C@]12C)C(C)C | 119% | 130% | 123% | 139% | 129% | 128% | 114% | 116% | 116% | 122% | 95.8% | 117% | 114% | 126% | 119% | 131% | 116% | 124% | 110% | 115% | 114% | 92.3% | 124% | 144% | 122% | 115% | 147% | 126% | 125% | 129% | 138% | 121% | 94.6%
4 | Cc1c(CN2CCN(C(=O)[C@H](C)O)CC2)sc2c(N3CCOCC3)nc(-c3cnc(N)nc3)nc12 | 98% | 63.4% | 78.2% | 79% | 70.5% | 67.7% | 55.4% | 38.5% | 35.8% | 36.1% | 31.3% | 96.8% | 70% | 95.4% | 80.9% | 84.6% | 80.1% | 56.3% | 34.3% | 34.3% | 36.8% | 27.3% | 90.4% | 54.8% | 87.4% | 82.4% | 67% | 78.6% | 48.2% | 41.3% | 36.6% | 34.6% | 30.5%
5 | Cc1cc(OCCCc2c(C(=O)O)n(Cc3cccnc3)c3c(-c4c(COc5ccc(N6CCN([S+](C)(=O)[O-])CC6)cc5)nn(C)c4C)cccc23)cc(C)c1Cl | 102% | 94.1% | 105% | 101% | 89.4% | 91.8% | 100% | 93.3% | 84.9% | 81.5% | 62.2% | 112% | 116% | 133% | 106% | 105% | 113% | 112% | 96.9% | 111% | 91.2% | 67.4% | 86.7% | 94.5% | 96.1% | 104% | 102% | 110% | 90.7% | 91.7% | 89.8% | 76.4% | 53.1%
6 | CC(C)NCC(O)COc1ccc(COCCOC(C)C)cc1 (stereo unspecified) | 110% | 115% | 122% | 103% | 124% | 105% | 129% | 132% | 116% | 110% | 118% | 106% | 124% | 130% | 120% | 132% | 118% | 109% | 123% | 121% | 131% | 105% | 123% | 125% | 124% | 115% | 117% | 129% | 118% | 138% | 106% | 126% | 114%
7 | CC1(C)CCC[C@]2(C)[C@H]3CC(=O)O[C@]3(C)CC[C@@H]12 | 101% | 103% | 102% | 116% | 119% | 95.2% | 116% | 118% | 115% | 101% | 93.3% | 110% | 114% | 106% | 107% | 106% | 115% | 119% | 115% | 112% | 82.2% | 100% | 114% | 106% | 116% | 126% | 104% | 112% | 121% | 111% | 119% | 79.2% | 99.1%
